# Experimental data published in patent US9562012B2, “PPAR-sparing compounds for the treatment of metabolic diseases” (Metabolic Solutions Development Company, LLC, priority 2013, dated 2017).
# Where a name gives a salt, the structure may show the parent alone.
# Assays:
# [1] = target: human PPARγ ligand binding domain (LBD) (Homo sapiens (Human), UniProt P37231); experiment: TR-FRET PPARγ competitive binding assay (Invitrogen LanthaScreen)
# Method: The assays are conducted by first evaluation of the direct interactions of the molecules with the ligand binding domain of PPARγ. […] PPARγ binding is measured by a TR-FRET competitive binding assay using Invitrogen LanthaScreen™ TR-FRET PPARγ Competitive Binding Assay (Invitrogen #4894). This assay uses a terbium-labeled anti-GST antibody to label the GST tagged human PPARγ ligand binding domain (LBD). A fluorescent small molecule pan-PPAR ligand tracer binds to the LBD causing energy transfer from the antibody to the ligand resulting in a high TR-FRET ratio. […] The TR-FRET ratio is determined by reading the fluorescence emission at 490 and 520 nm using a Synergy2 plate reader (BioTek). The ability of compounds of the present invention to bind to PPARγ may also be measured using a commercial binding assay (Invitrogen Corporation, Carlsbad, Calif.) that measures the test compounds ability to bind with PPAR-LBD/Fluormone PPAR Green complex. These assays are performed on three occasions with each assay using duplicate wells at each concentration of tested compound. The data are mean and SEM of the values obtained from the three experiments. […] Compounds were added at the concentrations shown, which ranged from 0.1-100 micromolar.
# [2] = tested on: diabetic KKAy mice; experiment: Glucose, insulin and triglyceride in diabetic KKAy mice; format: in vivo; conditions: orally dosed 93 mg/kg for 4 days, T/C normalized to vehicle activity
# Method: The insulin sensitizing and antidiabetic pharmacology are measured in the KKA^Y mice as previously reported [Hofmann, C., Lomez, K., and Colca, J. R. (1991). Glucose transport deficiency corrected by treatment with the oral anti-hyperglycemic agent Pioglitazone. Endocrinology, 129:1915-1925.]. Compounds are formulated in 1% sodium carboxy methylcellulose, and 0.01% tween 20 and dosed daily by oral gavage. […] Compounds were formulated by suspension and orally dosed to KKA^Y mice at 93 mg/kg for 4 days. The compounds were first dissolved in DMSO and then placed into aqueous suspension containing 7-10% DMSO, 1% sodium methylcarboxycellulose, and 0.01% Tween 20. On the fifth day, the mice were fasted and blood samples were obtained approximately 18 hours after the last dose. The parameters were measured by standard assay methods. Data are mean and SEM N=6-12 mice.
# Sequence of human PPARγ ligand binding domain (LBD) (P37231 238-503): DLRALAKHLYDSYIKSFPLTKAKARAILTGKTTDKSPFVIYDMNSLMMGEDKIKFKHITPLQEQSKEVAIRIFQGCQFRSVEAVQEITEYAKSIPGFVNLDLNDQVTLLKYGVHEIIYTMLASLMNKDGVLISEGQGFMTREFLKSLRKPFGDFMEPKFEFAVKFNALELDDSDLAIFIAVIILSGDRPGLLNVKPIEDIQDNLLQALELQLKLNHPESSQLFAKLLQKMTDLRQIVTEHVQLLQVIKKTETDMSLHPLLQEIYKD
Structure (SMILES),IC50 [1],Gluclose (mean T/C) [2]
"CCO[C@@H](Cc1ccc(OCc2cc(OC)ccn2)cc1)C(=O)N(C)OC [Compound 4, (2S)-2-ethoxy-N-methoxy-3-{4-[(4-methoxypyridin-2-yl)methoxy]phenyl}-N-methylpropanamide]",27.7 µM,
CCO[C@@H](Cc1ccc(OCCc2ccc(OS(C)(=O)=O)cc2)cc1)C(=O)NOC [Compound 10],7.9 µM,
CCO[C@@H](Cc1ccc(OC[C@@H](O)c2cccc(OC)c2)cc1)C(=O)N(C)OC [Compound 17],27.7 µM,
"CCO[C@@H](Cc1ccc(OC[C@H](O)c2cccc(OC)c2)cc1)C(=O)N(C)OC [Compound 16, (2S)-2-Ethoxy-3-{4-[(2R)-2-hydroxy-2-(3-methoxyphenyl)ethoxy]phenyl}-N-methoxy-N-methylpropanamide]",191 µM,
"CCO[C@@H](Cc1ccc(OCC(=O)c2cccc(OC)c2)cc1)C(=O)N(C)OC [Compound 14, (2S)-2-ethoxy-N-methoxy-3-{4-[2-(3-methoxyphenyl)-2-oxoethoxy]phenyl}-N-methylpropanamide]",> 250 µM,0.76
"CCO[C@H](Cc1ccc(OCC(=O)c2cccc(OC)c2)cc1)C(=O)N(C)OC [Compound 11, (2R)-2-ethoxy-N-methoxy-3-{4-[2-(3-methoxyphenyl)-2-oxoethoxy]phenyl}-N-methylpropanamide]",30.5 µM,
CCO[C@@H](Cc1ccc(OCCc2ccc(OS(C)(=O)=O)cc2)cc1)C(=O)N(C)O [Compound 20],10.9 µM,
CCO[C@@H](Cc1ccc(OCCc2ccc(OS(C)(=O)=O)cc2)cc1)C(=O)N(C)OC [Compound 21],3.7 µM,

# Now from value to compound, other results behind:
IC50 [1],Structure (SMILES),Gluclose (mean T/C) [2]
11.8 µM,"CCO[C@@H](Cc1ccc(OCc2cccc(I)c2)cc1)C(=O)NO [Compound 7, (2S)-2-ethoxy-N-hydroxy-3-{4-[(3-iodobenzyl)oxy]phenyl}propanamide]",
164 µM,"CCO[C@@H](Cc1ccc(OC[C@@H](O)c2cccc(OC)c2)cc1)C(=O)NOC [Compound 12, (2S)-2-ethoxy-3-{4-[(2S)-2-hydroxy-2-(3-methoxyphenyl)ethoxy]phenyl}-N-methoxypropanamide]",0.49
> 100 µM,"CCO[C@H](Cc1ccc(OC[C@@H](O)c2cccc(OC)c2)cc1)C(=O)NO [Compound 2, (2R)-2-ethoxy-N-hydroxy-3-{4-[(2S)-2-hydroxy-2-(3-methoxyphenyl)ethoxy]phenyl}propanamide]",
> 250 µM,"CCO[C@@H](Cc1ccc(OCc2ccc(S(C)(=O)=O)cc2)cc1)C(=O)NOC [Compound 9, (2S)-2-ethoxy-N-methoxy-3-(4-{[4-(methylsulfonyl)benzyl]oxy}phenyl) propanamide]",
> 195 µM,"CCO[C@@H](Cc1ccc(OCc2cc(OC)ccn2)cc1)C(=O)N(C)O.Cl [Compound 6, (2S)-2-ethoxy-N-hydroxy-3-{4-[(4-methoxypyridin-2-yl)methoxy]phenyl}-N-methylpropanamide hydrochloride]",0.55
98.5 µM,"CCO[C@H](Cc1ccc(OCC(=O)c2cccc(OC)c2)cc1)C(=O)NOC [Compound 8, (2R)-2-ethoxy-N-methoxy-3-{4-[2-(3-methoxyphenyl)-2-oxoethoxy]phenyl}propanamide]",
> 250 µM,"CCO[C@@H](Cc1ccc(OCc2cc(OC)ccn2)cc1)C(=O)NOC.Cl [Compound 5, (2S)-2-ethoxy-N-methoxy-3-{4-[(4-methoxypyridin-2-yl)methoxy]phenyl}propanamide hydrochloride]",0.97
> 250 µM,"CCO[C@H](Cc1ccc(OC[C@H](O)c2cccc(OC)c2)cc1)C(=O)NOC [Compound 19, (2R)-2-ethoxy-3-{4-[(2R)-2-hydroxy-2-(3-methoxyphenyl)ethoxy]phenyl}-N-methoxypropanamide]",
> 250 µM,"CCO[C@@H](Cc1ccc(OCc2cc(OC)ccn2)cc1)C(=O)NO [Compound 3, (2S)-2-ethoxy-N-hydroxy-3-{4-[(4-methoxypyridin-2-yl)methoxy]phenyl}propanamide hydrochloride]",
> 200 µM,"CCO[C@@H](Cc1ccc(OC[C@H](O)c2cccc(OC)c2)cc1)C(=O)NOC [Compound 15, (2S)-2-ethoxy-3-{4-[(2R)-2-hydroxy-2-(3-methoxyphenyl)ethoxy]phenyl}-N-methoxypropanamide]",
61.4 µM,"CCO[C@@H](Cc1ccc(OCC(=O)c2cccc(OC)c2)cc1)C(=O)NOC [Compound 13, (2S)-2-ethoxy-N-methoxy-3-{4-[2-(3-methoxyphenyl)-2-oxoethoxy]phenyl}Propanamide]",0.59
> 250 µM,"CCO[C@H](Cc1ccc(OC[C@@H](O)c2cccc(OC)c2)cc1)C(=O)NOC [Compound 18, (2R)-2-ethoxy-3-{4-[(2S)-2-hydroxy-2-(3-methoxyphenyl)ethoxy]phenyl}-N-methoxypropanamide]",
58.9 µM,"CCO[C@@H](Cc1ccc(OCc2ccccn2)cc1)C(=O)NO [Compound 1, (2S)-2-ethoxy-N-hydroxy-3-[4-(pyridin-2-ylmethoxy)phenyl]propanamide hydrogen chloride]",
